Measurements taken from patent US20260166128A1, “HUMAN AMYLIN ANALOG, AND DERIVATIVE THEREOF AND USE THEREOF” (priority 2022, published 2026).
Numbered stars: 1 amine (or outer) side, 2 acyl side, 3 side chain; on linkers, the order of the positions; unused ones are H or OH. Bridge positions count the residues as written; N and C are the ends. Side chains are listed from the residue outwards. Peptide text beside a SMILES is read from it. * marks the point of attachment. C20 diacid = O=C(O)CCCCCCCCCCCCCCCCCCC(=O)*; γGlu = O=C(O)[C@H](CCC(=O)[*:2])N[*:1]; AEEA = NCCOCCOCC(=O)O

Assays:
[1] = Freeze-thaw stability of derivatives (freeze-thaw yield by liquid chromatography); format: physicochemical; conditions: for Dissolution property: appearance after dissolution at 0.2 mg/ml in 20 mM phosphate buffer solution (PB) (pH 7.0); for Freeze storage property: appearance after overnight storage at −20° C. and thawing to room temperature, 0.2 mg/ml in 20 mM PB (pH 7.0)
Outline: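 Lyophilised peptide derivative dissolved at 0.2 mg/ml in 20 mM phosphate buffer, pH 7.0, frozen overnight at −20° C, then thawed at room temperature. Peptide concentration before and after freeze-thaw measured by reversed-phase HPLC on centrifuged supernatant; yield = post-thaw/pre-thaw concentration.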

[2] = molecular target: T1, human amylin receptor (Homo sapiens, UniProt O60896+P30988); test: Luciferase assay of amylin derivatives in amylin receptor/CRE-luc CHO cell line; format: cell-based; conditions: CHO-K1/Ga15/AMY3 CRE-luc cells, 24 hours incubation, F12 medium containing 10% FBS; read-out: EC50
T1 construct: host or cells: CHO-K1/Ga15/AMY3 cells, further stably transfected with a CRE-luciferase plasmid
T1 sequence (P30988 25-474): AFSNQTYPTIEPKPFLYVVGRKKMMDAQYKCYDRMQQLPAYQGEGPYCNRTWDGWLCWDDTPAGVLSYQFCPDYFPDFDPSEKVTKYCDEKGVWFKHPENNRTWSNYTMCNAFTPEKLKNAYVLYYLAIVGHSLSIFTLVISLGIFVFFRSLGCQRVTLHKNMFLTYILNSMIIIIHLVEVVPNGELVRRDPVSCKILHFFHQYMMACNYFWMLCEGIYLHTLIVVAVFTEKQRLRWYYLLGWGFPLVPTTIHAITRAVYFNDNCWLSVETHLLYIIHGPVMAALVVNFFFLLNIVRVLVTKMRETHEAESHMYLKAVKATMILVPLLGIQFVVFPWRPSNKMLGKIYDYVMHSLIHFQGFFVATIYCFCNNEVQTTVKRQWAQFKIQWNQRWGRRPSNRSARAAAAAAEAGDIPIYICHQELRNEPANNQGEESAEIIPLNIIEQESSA
T1 sequence (O60896 24-148 partner): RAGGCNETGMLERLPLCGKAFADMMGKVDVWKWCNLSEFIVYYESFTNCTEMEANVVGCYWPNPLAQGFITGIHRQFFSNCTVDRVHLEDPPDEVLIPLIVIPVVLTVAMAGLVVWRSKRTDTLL
Experimental: The experiment was intended to detect the activity or efficacy of the amylin derivatives on a human amylin receptor in vitro by luciferase assay.
50 μL of growth medium (F12 medium containing 10% FBS) was added into each well of a white 96-well plate, and the stably transfected amylin/CRE-lue CHO cells were inoculated into the white 96-well plate at a density of about 20,000 cells/well for activity determination.

Dissolution property [1]	Freeze storage property [1]	EC50 [2] [nM]	Freeze storage yield ([1]; concentration of polypeptide after freezing and thawing / concentration before, by liquid chromatography, −20° C. overnight) [%]	Structure (SMILES)
Clear	Clear	0.102		CC[C@H](C)[C@H](NC(=O)[C@@H]1CCCN1C(=O)[C@H](CCCCNC(=O)COCCOCCNC(=O)COCCOCCNC(=O)CC[C@H](NC(=O)CCCCCCCCCCCCCCCCCCC(=O)O)C(=O)O)NC(=O)[C@H](CC(C)C)NC(=O)[C@H](CC(N)=O)NC(=O)[C@H](CC(N)=O)NC(=O)[C@H](CO)NC(=O)[C@H](CO)NC(=O)[C@H](Cc1c[nH]cn1)NC(=O)[C@H](CCCNC(=N)N)NC(=O)[C@H](CC(C)C)NC(=O)[C@H](Cc1ccccc1)NC(=O)[C@H](CCC(=O)O)NC(=O)[C@H](C)NC(=O)[C@H](CC(C)C)NC(=O)[C@H](CCCNC(=N)N)NC(=O)[C@H](CCC(N)=O)NC(=O)[C@@H](NC(=O)[C@H](C)NC(=O)[C@@H]1CSSC[C@H](NC(=O)[C@@H](N)CCCNC(=N)N)C(=O)N[C@@H](CC(N)=O)C(=O)N[C@@H]([C@@H](C)O)C(=O)N[C@@H](C)C(=O)N[C@@H]([C@@H](C)O)C(=O)N1)[C@@H](C)O)C(=O)N[C@@H](CC(C)C)C(=O)N1CCC[C@H]1C(=O)N1CCC[C@H]1C(=O)N[C@H](C(=O)N[C@@H](CC(N)=O)C(=O)N[C@H](C(=O)NCC(=O)N[C@@H](CO)C(=O)N[C@@H](CC(N)=O)C(=O)N[C@H](C(=O)N1CCC[C@H]1C(N)=O)[C@@H](C)O)C(C)C)[C@@H](C)O [PD004] (H-RCNTATCATQRLAEFLRHSSNNLK([AEEA-AEEA-γGlu-C20 diacid])PILPPTNVGSNTP-NH2; disulfide 2-7 (inferred); N-terminus assumed)
Clear	Clear	0.129		CC[C@H](C)[C@H](NC(=O)[C@@H]1CCCN1C(=O)CNC(=O)[C@H](CC(C)C)NC(=O)[C@H](CC(N)=O)NC(=O)[C@H](CCCCNC(=O)CC[C@H](NC(=O)CCCCCCCCCCCCCCCCCCC(=O)O)C(=O)O)NC(=O)[C@H](CO)NC(=O)[C@H](CO)NC(=O)[C@H](Cc1c[nH]cn1)NC(=O)[C@H](CCCNC(=N)N)NC(=O)[C@H](CC(C)C)NC(=O)[C@H](Cc1ccccc1)NC(=O)[C@H](CCC(=O)O)NC(=O)[C@H](C)NC(=O)[C@H](CC(C)C)NC(=O)[C@H](CCCNC(=N)N)NC(=O)[C@H](CCC(N)=O)NC(=O)[C@@H](NC(=O)[C@H](C)NC(=O)[C@@H]1CSSC[C@H](NC(=O)[C@@H](N)CCCNC(=N)N)C(=O)N[C@@H](CC(N)=O)C(=O)N[C@@H]([C@@H](C)O)C(=O)N[C@@H](C)C(=O)N[C@@H]([C@@H](C)O)C(=O)N1)[C@@H](C)O)C(=O)N[C@@H](CC(C)C)C(=O)N1CCC[C@H]1C(=O)N1CCC[C@H]1C(=O)N[C@H](C(=O)N[C@@H](CC(N)=O)C(=O)N[C@H](C(=O)NCC(=O)N[C@@H](CO)C(=O)N[C@@H](CC(N)=O)C(=O)N[C@H](C(=O)N1CCC[C@H]1C(N)=O)[C@@H](C)O)C(C)C)[C@@H](C)O [PD006] (H-RCNTATCATQRLAEFLRHSSK([γGlu-C20 diacid])NLGPILPPTNVGSNTP-NH2; disulfide 2-7 (inferred); N-terminus assumed)
Clear	Clear	0.205		CC[C@H](C)[C@H](NC(=O)[C@@H]1CCCN1C(=O)CNC(=O)[C@H](CC(C)C)NC(=O)[C@H](CCCCNC(=O)CC[C@H](NC(=O)CCCCCCCCCCCCCCCCCCC(=O)O)C(=O)O)NC(=O)[C@H](CC(N)=O)NC(=O)[C@H](CO)NC(=O)[C@H](CO)NC(=O)[C@H](Cc1c[nH]cn1)NC(=O)[C@H](CCCNC(=N)N)NC(=O)[C@H](CC(C)C)NC(=O)[C@H](Cc1ccccc1)NC(=O)[C@H](CCC(=O)O)NC(=O)[C@H](C)NC(=O)[C@H](CC(C)C)NC(=O)[C@H](CCCNC(=N)N)NC(=O)[C@H](CCC(N)=O)NC(=O)[C@@H](NC(=O)[C@H](C)NC(=O)[C@@H]1CSSC[C@H](NC(=O)[C@@H](N)CCCNC(=N)N)C(=O)N[C@@H](CC(N)=O)C(=O)N[C@@H]([C@@H](C)O)C(=O)N[C@@H](C)C(=O)N[C@@H]([C@@H](C)O)C(=O)N1)[C@@H](C)O)C(=O)N[C@@H](CC(C)C)C(=O)N1CCC[C@H]1C(=O)N1CCC[C@H]1C(=O)N[C@H](C(=O)N[C@@H](CC(N)=O)C(=O)N[C@H](C(=O)NCC(=O)N[C@@H](CO)C(=O)N[C@@H](CC(N)=O)C(=O)N[C@H](C(=O)N1CCC[C@H]1C(N)=O)[C@@H](C)O)C(C)C)[C@@H](C)O [PD007] (H-RCNTATCATQRLAEFLRHSSNK([γGlu-C20 diacid])LGPILPPTNVGSNTP-NH2; disulfide 2-7 (inferred); N-terminus assumed)
Clear	Clear	0.281		CC[C@H](C)[C@H](NC(=O)[C@@H]1CCCN1C(=O)CNC(=O)[C@H](CCCCNC(=O)CC[C@H](NC(=O)CCCCCCCCCCCCCCCCCCC(=O)O)C(=O)O)NC(=O)[C@H](CC(N)=O)NC(=O)[C@H](CC(N)=O)NC(=O)[C@H](CO)NC(=O)[C@H](CO)NC(=O)[C@H](Cc1c[nH]cn1)NC(=O)[C@H](CCCNC(=N)N)NC(=O)[C@H](CC(C)C)NC(=O)[C@H](Cc1ccccc1)NC(=O)[C@H](CCC(=O)O)NC(=O)[C@H](C)NC(=O)[C@H](CC(C)C)NC(=O)[C@H](CCCNC(=N)N)NC(=O)[C@H](CCC(N)=O)NC(=O)[C@@H](NC(=O)[C@H](C)NC(=O)[C@@H]1CSSC[C@H](NC(=O)[C@@H](N)CCCNC(=N)N)C(=O)N[C@@H](CC(N)=O)C(=O)N[C@@H]([C@@H](C)O)C(=O)N[C@@H](C)C(=O)N[C@@H]([C@@H](C)O)C(=O)N1)[C@@H](C)O)C(=O)N[C@@H](CC(C)C)C(=O)N1CCC[C@H]1C(=O)N1CCC[C@H]1C(=O)N[C@H](C(=O)N[C@@H](CC(N)=O)C(=O)N[C@H](C(=O)NCC(=O)N[C@@H](CO)C(=O)N[C@@H](CC(N)=O)C(=O)N[C@H](C(=O)N1CCC[C@H]1C(N)=O)[C@@H](C)O)C(C)C)[C@@H](C)O [PD008] (H-RCNTATCATQRLAEFLRHSSNNK([γGlu-C20 diacid])GPILPPTNVGSNTP-NH2; disulfide 2-7 (inferred))
Clear	Clear	0.067		CC[C@H](C)[C@H](NC(=O)[C@@H]1CCCN1C(=O)[C@H](CCCCNC(=O)CC[C@H](NC(=O)CCCCCCCCCCCCCCCCCCC(=O)O)C(=O)O)NC(=O)[C@H](CC(C)C)NC(=O)[C@H](CC(N)=O)NC(=O)[C@H](CC(N)=O)NC(=O)[C@H](CO)NC(=O)[C@H](CO)NC(=O)[C@H](Cc1c[nH]cn1)NC(=O)[C@H](CCCNC(=N)N)NC(=O)[C@H](CC(C)C)NC(=O)[C@H](Cc1ccccc1)NC(=O)[C@H](CCC(=O)O)NC(=O)[C@H](C)NC(=O)[C@H](CC(C)C)NC(=O)[C@H](CCCNC(=N)N)NC(=O)[C@H](CCC(N)=O)NC(=O)[C@@H](NC(=O)[C@H](C)NC(=O)[C@@H]1CSSC[C@H](NC(=O)[C@@H](N)CCCNC(=N)N)C(=O)N[C@@H](CC(N)=O)C(=O)N[C@@H]([C@@H](C)O)C(=O)N[C@@H](C)C(=O)N[C@@H]([C@@H](C)O)C(=O)N1)[C@@H](C)O)C(=O)N[C@@H](CC(C)C)C(=O)N1CCC[C@H]1C(=O)N1CCC[C@H]1C(=O)N[C@H](C(=O)N[C@@H](CC(N)=O)C(=O)N[C@H](C(=O)NCC(=O)N[C@@H](CO)C(=O)N[C@@H](CC(N)=O)C(=O)N[C@H](C(=O)N1CCC[C@H]1C(N)=O)[C@@H](C)O)C(C)C)[C@@H](C)O [PD009] (H-RCNTATCATQRLAEFLRHSSNNLK([γGlu-C20 diacid])PILPPTNVGSNTP-NH2; disulfide 2-7 (inferred))
Clear	Muddy	0.772	100.81	CC[C@H](C)[C@H](NC(=O)[C@@H]1CCCN1C(=O)[C@H](CCCCNC(=O)CC[C@H](NC(=O)CCCCCCCCCCCCCCCCCCC(=O)O)C(=O)O)NC(=O)[C@H](CC(C)C)NC(=O)[C@H](CC(N)=O)NC(=O)[C@H](CC(N)=O)NC(=O)[C@H](CO)NC(=O)[C@H](CO)NC(=O)[C@H](Cc1c[nH]cn1)NC(=O)[C@H](CCCNC(=N)N)NC(=O)[C@H](CC(C)C)NC(=O)[C@H](Cc1ccccc1)NC(=O)[C@H](CCC(=O)O)NC(=O)[C@H](C)NC(=O)[C@H](CC(C)C)NC(=O)[C@H](CCCNC(=N)N)NC(=O)[C@H](CCC(N)=O)NC(=O)[C@@H](NC(=O)[C@H](C)NC(=O)[C@@H]1CSSC[C@H](NC(=O)[C@@H](N)CCCNC(=N)N)C(=O)N[C@@H](CC(N)=O)C(=O)N[C@@H]([C@@H](C)O)C(=O)N[C@@H](C)C(=O)N[C@@H]([C@@H](C)O)C(=O)N1)[C@@H](C)O)C(=O)N[C@@H](CC(C)C)C(=O)N1CCC[C@H]1C(=O)N1CCC[C@H]1C(=O)N[C@H](C(=O)N[C@@H](CC(N)=O)C(=O)N[C@H](C(=O)NCC(=O)N[C@@H](CO)C(=O)N[C@@H](CC(N)=O)C(=O)N[C@H](C(=O)N[C@@H](Cc1ccc(O)cc1)C(N)=O)[C@@H](C)O)C(C)C)[C@@H](C)O [PD017] (H-RCNTATCATQRLAEFLRHSSNNLK([γGlu-C20 diacid])PILPPTNVGSNTY-NH2; disulfide 2-7 (inferred); N-terminus assumed)
